Measurements published in patent US4479951A, “1.4;3.6-Dianhydrohexitol nitrates substituted by purine bases, processes for their preparation and pharmaceutical compositions” (Dr. Willmar Schwabe GmbH & Co., priority 1980, dated 1984).

Test system: mongrel dogs
Assay: circulatory-pharmacological effectiveness on the narcotised dog, intravenous administration
Assay type: in vivo

Compound: Nc1ncnc2c1ncn2[C@H]1CO[C@H]2[C@@H]1OC[C@@H]2O[N+](=O)[O-] [1c/2c, 5-(9-Adenyl)-5-desoxy-1.4;3.6-dianhydro-L-iditol 2-nitrate]
- APdiast: diastolic aorta pressure (2 min after i.v. 1 mg/kg): 74.1 mm.Hg
- APsyst: systolic aorta pressure (2 min after i.v. 1 mg/kg): 115.3 mm.Hg
- BFFem: blood flow in the A. femoralis, referred to 20 kg. body weight (2 min after i.v. 1 mg/kg): 35.3 mL/min
- HF: heart frequency (2 min after i.v. 1 mg/kg): 158.7 min⁻¹
- HLL: heart capacity left, referred to 20 kg. body weight (2 min after i.v. 1 mg/kg): 0.75 W
- HLR: heart capacity right, referred to 20 kg. body weight (2 min after i.v. 1 mg/kg): 115.8 mW
- HZV: heart minute volume, referred to 20 kg. body weight (2 min after i.v. 1 mg/kg): 3.91 L/min
- LVEDP: end diastolic pressure in the left ventricle (2 min after i.v. 1 mg/kg): 2.62 mm.Hg
- PAP: average pressure in the A. pulmonalis (2 min after i.v. 1 mg/kg): 15.6 ±2.1 mm.Hg
- PRA: pressure in the right atrium (2 min after i.v. 1 mg/kg): 2.06 mm.Hg
- SV: beat volume, referred to 20 kg. body weight (2 min after i.v. 1 mg/kg): 25.6 mL
- WAP: pulmonalis resistance, referred to 20 kg. body weight (2 min after i.v. 1 mg/kg): 0.45 U
- WFem: femoralis resistance, referred to 20 kg. body weight (2 min after i.v. 1 mg/kg): 0.35 KU
- WTP: total peripheral resistance, referred to 20 kg. body weight (2 min after i.v. 1 mg/kg): 2.93 U
- dp/dt: rate of pressure increase in the left ventricle (2 min after i.v. 1 mg/kg): 2606.2 mm.Hg/sec.
- APdiast: diastolic aorta pressure (5 min after i.v. 1 mg/kg): 82.5 mm.Hg
- APsyst: systolic aorta pressure (5 min after i.v. 1 mg/kg): 120.9 mm.Hg
- BFFem: blood flow in the A. femoralis, referred to 20 kg. body weight (5 min after i.v. 1 mg/kg): 36.6 mL/min
- HF: heart frequency (5 min after i.v. 1 mg/kg): 148.7 min⁻¹
- HLL: heart capacity left, referred to 20 kg. body weight (5 min after i.v. 1 mg/kg): 0.74 W
- HLR: heart capacity right, referred to 20 kg. body weight (5 min after i.v. 1 mg/kg): 87.6 mW
- HZV: heart minute volume, referred to 20 kg. body weight (5 min after i.v. 1 mg/kg): 3.61 L/min
- LVEDP: end diastolic pressure in the left ventricle (5 min after i.v. 1 mg/kg): 2.91 mm.Hg
- PAP: average pressure in the A. pulmonalis (5 min after i.v. 1 mg/kg): 13.7 ±1.4 mm.Hg
- PRA: pressure in the right atrium (5 min after i.v. 1 mg/kg): 2.81 mm.Hg
- SV: beat volume, referred to 20 kg. body weight (5 min after i.v. 1 mg/kg): 26.0 mL
- WAP: pulmonalis resistance, referred to 20 kg. body weight (5 min after i.v. 1 mg/kg): 0.40 U
- WFem: femoralis resistance, referred to 20 kg. body weight (5 min after i.v. 1 mg/kg): 0.36 KU
- WTP: total peripheral resistance, referred to 20 kg. body weight (5 min after i.v. 1 mg/kg): 3.42 U
- dp/dt: rate of pressure increase in the left ventricle (5 min after i.v. 1 mg/kg): 2343.7 mm.Hg/sec.
- APdiast: diastolic aorta pressure (7 min after i.v. 1 mg/kg): 83.4 mm.Hg
- APsyst: systolic aorta pressure (7 min after i.v. 1 mg/kg): 121.9 mm.Hg
- BFFem: blood flow in the A. femoralis, referred to 20 kg. body weight (7 min after i.v. 1 mg/kg): 38.6 mL/min
- HF: heart frequency (7 min after i.v. 1 mg/kg): 146.7 min⁻¹
- HLL: heart capacity left, referred to 20 kg. body weight (7 min after i.v. 1 mg/kg): 0.72 W
- HLR: heart capacity right, referred to 20 kg. body weight (7 min after i.v. 1 mg/kg): 89.3 mW
- HZV: heart minute volume, referred to 20 kg. body weight (7 min after i.v. 1 mg/kg): 3.51 L/min
- LVEDP: end diastolic pressure in the left ventricle (7 min after i.v. 1 mg/kg): 2.91 mm.Hg
- PAP: average pressure in the A. pulmonalis (7 min after i.v. 1 mg/kg): 14.1 ±1.6 mm.Hg
- PRA: pressure in the right atrium (7 min after i.v. 1 mg/kg): 2.81 mm.Hg
- SV: beat volume, referred to 20 kg. body weight (7 min after i.v. 1 mg/kg): 25.6 mL
- WAP: pulmonalis resistance, referred to 20 kg. body weight (7 min after i.v. 1 mg/kg): 0.42 U
- WFem: femoralis resistance, referred to 20 kg. body weight (7 min after i.v. 1 mg/kg): 0.34 KU
- WTP: total peripheral resistance, referred to 20 kg. body weight (7 min after i.v. 1 mg/kg): 3.59 U
- dp/dt: rate of pressure increase in the left ventricle (7 min after i.v. 1 mg/kg): 2362.5 mm.Hg/sec.
- APdiast: diastolic aorta pressure (10 min after i.v. 1 mg/kg): 83.4 mm.Hg
- APsyst: systolic aorta pressure (10 min after i.v. 1 mg/kg): 120.9 mm.Hg
- BFFem: blood flow in the A. femoralis, referred to 20 kg. body weight (10 min after i.v. 1 mg/kg): 39.5 mL/min
- HF: heart frequency (10 min after i.v. 1 mg/kg): 141.2 min⁻¹
- HLL: heart capacity left, referred to 20 kg. body weight (10 min after i.v. 1 mg/kg): 0.72 W
- HLR: heart capacity right, referred to 20 kg. body weight (10 min after i.v. 1 mg/kg): 88.8 mW
- HZV: heart minute volume, referred to 20 kg. body weight (10 min after i.v. 1 mg/kg): 3.5 L/min
- LVEDP: end diastolic pressure in the left ventricle (10 min after i.v. 1 mg/kg): 3.20 mm.Hg
- PAP: average pressure in the A. pulmonalis (10 min after i.v. 1 mg/kg): 14.2 ±1.6 mm.Hg
- PRA: pressure in the right atrium (10 min after i.v. 1 mg/kg): 2.95 mm.Hg
- SV: beat volume, referred to 20 kg. body weight (10 min after i.v. 1 mg/kg): 26.4 mL
- WAP: pulmonalis resistance, referred to 20 kg. body weight (10 min after i.v. 1 mg/kg): 0.42 U
- WFem: femoralis resistance, referred to 20 kg. body weight (10 min after i.v. 1 mg/kg): 0.33 KU
- WTP: total peripheral resistance, referred to 20 kg. body weight (10 min after i.v. 1 mg/kg): 3.57 U
- dp/dt: rate of pressure increase in the left ventricle (10 min after i.v. 1 mg/kg): 2268.7 mm.Hg/sec.
- APdiast: diastolic aorta pressure (15 min after i.v. 1 mg/kg): 80.6 mm.Hg
- APsyst: systolic aorta pressure (15 min after i.v. 1 mg/kg): 120.4 mm.Hg
- BFFem: blood flow in the A. femoralis, referred to 20 kg. body weight (15 min after i.v. 1 mg/kg): 39.9 mL/min
- HF: heart frequency (15 min after i.v. 1 mg/kg): 133.0 min⁻¹
- HLL: heart capacity left, referred to 20 kg. body weight (15 min after i.v. 1 mg/kg): 0.72 W
- HLR: heart capacity right, referred to 20 kg. body weight (15 min after i.v. 1 mg/kg): 87.3 mW
- HZV: heart minute volume, referred to 20 kg. body weight (15 min after i.v. 1 mg/kg): 3.61 L/min
- LVEDP: end diastolic pressure in the left ventricle (15 min after i.v. 1 mg/kg): 3.37 mm.Hg
- PAP: average pressure in the A. pulmonalis (15 min after i.v. 1 mg/kg): 14.0 ±1.9 mm.Hg
- PRA: pressure in the right atrium (15 min after i.v. 1 mg/kg): 3.24 mm.Hg
- SV: beat volume, referred to 20 kg. body weight (15 min after i.v. 1 mg/kg): 29.3 mL
- WAP: pulmonalis resistance, referred to 20 kg. body weight (15 min after i.v. 1 mg/kg): 0.40 U
- WFem: femoralis resistance, referred to 20 kg. body weight (15 min after i.v. 1 mg/kg): 0.32 KU
- WTP: total peripheral resistance, referred to 20 kg. body weight (15 min after i.v. 1 mg/kg): 3.41 U
- dp/dt: rate of pressure increase in the left ventricle (15 min after i.v. 1 mg/kg): 2250.0 mm.Hg/sec.
- APdiast: diastolic aorta pressure (20 min after i.v. 1 mg/kg): 79.1 mm.Hg
- APsyst: systolic aorta pressure (20 min after i.v. 1 mg/kg): 121.5 mm.Hg
- BFFem: blood flow in the A. femoralis, referred to 20 kg. body weight (20 min after i.v. 1 mg/kg): 41.2 mL/min
- HF: heart frequency (20 min after i.v. 1 mg/kg): 129.7 min⁻¹
- HLL: heart capacity left, referred to 20 kg. body weight (20 min after i.v. 1 mg/kg): 0.72 W
- HLR: heart capacity right, referred to 20 kg. body weight (20 min after i.v. 1 mg/kg): 87.7 mW
- HZV: heart minute volume, referred to 20 kg. body weight (20 min after i.v. 1 mg/kg): 3.66 L/min
- LVEDP: end diastolic pressure in the left ventricle (20 min after i.v. 1 mg/kg): 3.56 mm.Hg
- PAP: average pressure in the A. pulmonalis (20 min after i.v. 1 mg/kg): 13.8 ±1.7 mm.Hg
- PRA: pressure in the right atrium (20 min after i.v. 1 mg/kg): 3.30 mm.Hg
- SV: beat volume, referred to 20 kg. body weight (20 min after i.v. 1 mg/kg): 30.0 mL
- WAP: pulmonalis resistance, referred to 20 kg. body weight (20 min after i.v. 1 mg/kg): 0.37 U
- WFem: femoralis resistance, referred to 20 kg. body weight (20 min after i.v. 1 mg/kg): 0.31 KU
- WTP: total peripheral resistance, referred to 20 kg. body weight (20 min after i.v. 1 mg/kg): 3.32 U
- dp/dt: rate of pressure increase in the left ventricle (20 min after i.v. 1 mg/kg): 2231.2 mm.Hg/sec.
- APdiast: diastolic aorta pressure (25 min after i.v. 1 mg/kg): 80.6 mm.Hg
- APsyst: systolic aorta pressure (25 min after i.v. 1 mg/kg): 122.8 mm.Hg
- BFFem: blood flow in the A. femoralis, referred to 20 kg. body weight (25 min after i.v. 1 mg/kg): 42.2 mL/min
- HF: heart frequency (25 min after i.v. 1 mg/kg): 125.7 min⁻¹
- HLL: heart capacity left, referred to 20 kg. body weight (25 min after i.v. 1 mg/kg): 0.74 W
- HLR: heart capacity right, referred to 20 kg. body weight (25 min after i.v. 1 mg/kg): 90.0 mW
- HZV: heart minute volume, referred to 20 kg. body weight (25 min after i.v. 1 mg/kg): 3.7 L/min
- LVEDP: end diastolic pressure in the left ventricle (25 min after i.v. 1 mg/kg): 4.03 mm.Hg
- PAP: average pressure in the A. pulmonalis (25 min after i.v. 1 mg/kg): 14.0 ±1.8 mm.Hg
- PRA: pressure in the right atrium (25 min after i.v. 1 mg/kg): 3.28 mm.Hg
- SV: beat volume, referred to 20 kg. body weight (25 min after i.v. 1 mg/kg): 31.3 mL
- WAP: pulmonalis resistance, referred to 20 kg. body weight (25 min after i.v. 1 mg/kg): 0.36 U
- WFem: femoralis resistance, referred to 20 kg. body weight (25 min after i.v. 1 mg/kg): 0.31 KU
- WTP: total peripheral resistance, referred to 20 kg. body weight (25 min after i.v. 1 mg/kg): 3.33 U
- dp/dt: rate of pressure increase in the left ventricle (25 min after i.v. 1 mg/kg): 2175.0 mm.Hg/sec.
- APdiast: diastolic aorta pressure (30 min after i.v. 1 mg/kg): 79.7 mm.Hg
- APsyst: systolic aorta pressure (30 min after i.v. 1 mg/kg): 122.8 mm.Hg
- BFFem: blood flow in the A. femoralis, referred to 20 kg. body weight (30 min after i.v. 1 mg/kg): 43.9 mL/min
- HF: heart frequency (30 min after i.v. 1 mg/kg): 122.7 min⁻¹
- HLL: heart capacity left, referred to 20 kg. body weight (30 min after i.v. 1 mg/kg): 0.73 W
- HLR: heart capacity right, referred to 20 kg. body weight (30 min after i.v. 1 mg/kg): 84.9 mW
- HZV: heart minute volume, referred to 20 kg. body weight (30 min after i.v. 1 mg/kg): 3.63 L/min
- LVEDP: end diastolic pressure in the left ventricle (30 min after i.v. 1 mg/kg): 4.31 mm.Hg
- PAP: average pressure in the A. pulmonalis (30 min after i.v. 1 mg/kg): 14.1 ±1.8 mm.Hg
- PRA: pressure in the right atrium (30 min after i.v. 1 mg/kg): 3.52 mm.Hg
- SV: beat volume, referred to 20 kg. body weight (30 min after i.v. 1 mg/kg): 31.6 mL
- WAP: pulmonalis resistance, referred to 20 kg. body weight (30 min after i.v. 1 mg/kg): 0.36 U
- WFem: femoralis resistance, referred to 20 kg. body weight (30 min after i.v. 1 mg/kg): 0.29 KU
- WTP: total peripheral resistance, referred to 20 kg. body weight (30 min after i.v. 1 mg/kg): 3.32 U
- dp/dt: rate of pressure increase in the left ventricle (30 min after i.v. 1 mg/kg): 2184.4 mm.Hg/sec.
